# From patent publication US20240252457A1, “Treatment or Prevention of Ischaemia Reperfusion Injury” (Cambridge Enterprise Limited, priority 2021, published 2024)
# “Also recorded” adds a separate entry of the source.
# Legend:
# C2C12 cells = test: Malonate / 3A3OPA uptake in C2C12 cells at different pH (LC-MS/MS); format: cell-based, mouse; details: for intracellular uptake, effect of lowered pH: 15 min, pH 6 vs 7.4 (and 8)
# Description: C2C12 cells were incubated with malonate at pH 8, 7.4 or 6 and the levels within cells measured by LC-MS/MS (mean±/−S.E.M., n=4).
# C2C12 cells were treated with either malonate or 3-amino-3-oxypropanoic acid at pH 7.4 or 6 and their intracellular levels measured by LC-MS/MS (mean±/−S.E.M., n=6).
# [1] = cited from earlier work
# MCT1 = molecular target: T1, MCT1 (Mus musculus, UniProt P53986); test: Malonate levels in Langendorff hearts perfused at pH 6 with DSM ± lactate or MCT1 inhibitor; set-up: species or system murine; details: pH 6, 5 min, 5 mM DSM; lactate 50 mM, AR-C141990 10 μM
# T1 construct: from tissue; host or cells: isolated Langendorff-perfused murine heart
# T1 sequence (P53986 1-493): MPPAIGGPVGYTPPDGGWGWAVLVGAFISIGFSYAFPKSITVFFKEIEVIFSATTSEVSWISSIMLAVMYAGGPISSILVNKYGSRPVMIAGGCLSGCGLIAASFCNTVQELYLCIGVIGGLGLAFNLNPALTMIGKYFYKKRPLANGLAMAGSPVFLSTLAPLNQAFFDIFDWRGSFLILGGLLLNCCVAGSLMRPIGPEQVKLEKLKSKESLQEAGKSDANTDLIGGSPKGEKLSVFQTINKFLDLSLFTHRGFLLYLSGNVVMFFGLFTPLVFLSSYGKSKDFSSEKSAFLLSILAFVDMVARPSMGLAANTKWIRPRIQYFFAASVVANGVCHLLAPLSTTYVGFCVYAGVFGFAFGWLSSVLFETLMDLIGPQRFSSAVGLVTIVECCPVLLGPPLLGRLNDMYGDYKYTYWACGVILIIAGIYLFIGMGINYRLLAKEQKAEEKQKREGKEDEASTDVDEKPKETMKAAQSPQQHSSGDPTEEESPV
# T1 sequence (P18572 140-389 partner limits assumed): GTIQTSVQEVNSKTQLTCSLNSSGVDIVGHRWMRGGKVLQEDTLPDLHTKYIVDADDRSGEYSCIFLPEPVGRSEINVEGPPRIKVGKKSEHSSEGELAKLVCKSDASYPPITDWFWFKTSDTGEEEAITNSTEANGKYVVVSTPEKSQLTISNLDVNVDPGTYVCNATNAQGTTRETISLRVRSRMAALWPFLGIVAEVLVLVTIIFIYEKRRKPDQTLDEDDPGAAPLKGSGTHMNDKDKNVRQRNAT
# From the text: Malonate uptake into the Langendorff perfused heart was blocked by the MCT1 inhibitor AR-C141990, in the perfusion medium, and by excess lactate.
# MCAO model = test: Transient middle cerebral artery occlusion (MCAO) stroke model; format: in vivo, mice; details: i.v. for 20 min starting just prior to reperfusion; 45 min ischaemia, 2 h reperfusion
# From the text: Male C57B16J mice, 6-8 weeks old, were anesthetized with 3% isoflurane and anaesthesia was maintained on 1.5-2% isoflurane. A Doppler flowmetry probe (Perimed, Sweden) was attached to the skull to continuously monitor the cerebral blood flow. Left common carotid artery (CCA) and left external carotid artery were exposed and permanently ligated. Left internal common carotid artery was clamped temporarily. Next, an incision was made on CCA and a filament with a silicon tip (0.22 mm in diameter, 2-3 mm in length, Doccol, USA) was inserted and guided forward into internal carotid artery until it reached middle cerebral artery (MCA). The occlusion of MCA was confirmed by seeing at least 70% drop in cerebral blood flow. […]
# At the end of reperfusion, mice were sacrificed by cervical dislocation; brain was collected and sliced at 2 mm thicknesses and stained with 2% triphenyltetrazolium chloride in saline at 37 C for 10-15 min. […] The healthy tissue area (red-stained) in both hemispheres was measured using ImageJ. The infarct volume % was calculated by first calculating the volume of healthy tissue in each hemisphere (Σ area of each slice×thickness of slice), then by the formula: ((volume of healthy tissue in uninjured hemisphere−volume of healthy tissue in injured hemisphere)÷volume of healthy tissue in uninjured hemisphere)×100.
# [2] = cited from earlier work; remark: listed apart in the source
# [3] = system: murine Langendorff perfused heart; test: Malonate uptake in Langendorff-perfused hearts (pH- and ischaemia-dependence, LC-MS/MS)
# Description: Malonate (5 mM) was infused into Langendorff perfused mouse hearts at either pH 7.4 or 6. The heart flushed to remove vessel malonate and malonate levels measured by LC-MS/MS (mean±/−S.E.M., n=4).
# Langendorff mouse hearts were reperfused with malonate (5 mM) after either 0, 5, 10, or 20 min ischaemia). The heart flushed to remove vessel malonate and malonate levels measured by LC-MS/MS (mean±/−S.E.M., n=4-5).
# Langendorff heart = test: Lactate levels in the Langendorff heart after 20 min ischemia and 1 min reperfusion; details: 5 mM DSM, 20 min ischemia
# From the text: Compared to reperfusion alone, lactate levels decreased in the malonate-treated hearts.
# murine LAD MI model = test: Infarct size in murine LAD MI model (TTC staining); format: in vivo
# Description: Mice were subjected to left anterior descending coronary artery ligation heart attack model (30 min ischaemia, 2 hr reperfusion) and malonate infused either before the onset of ischaemia or during initial reperfusion. Infarct size was determined by staining the heart with triphenyltetrazolium chloride (mean±/−S.E.M., n=5-8).
# Thus, malonate was confirmed to be cardioprotective when administered at the point of reperfusion after ischaemia.
# Cyclosporin A is a known inhibitor of the mitochondrial permeability transition pore (PTP).
# H9c2 myoblasts = test: Intracellular malonate and succinate in H9c2 myoblasts at different pH (LC-MS/MS); format: cell-based; details: H9c2, DSM 1 or 5 mM, 15 min
# [4] = system: C2C12 mouse myoblast cells; test: Malonate uptake in vitro in C2C12 cells (dose and time course); format: cell-based; details: for malonate uptake into cells (words): 0.25, 1 or 5 mM, 0 to 240 min; for intracellular malonate concentration: 5 min, cell volume 260 mg protein/ml
# Description: We first explored whether malonate could be taken up by cells in culture. C2C12 mouse myoblast cells were plated at 300,000 cells/well and adhered overnight. […] Cells were extracted for mass spectrometry with 500 μl extraction buffer (50% methanol, 30% acetonitrile and 20% water) with 1 nmol ^13C-malonate internal standard centrifuged to remove insoluble debris.
# [5] = Malonate uptake in vivo, tissue levels after tail vein bolus; set-up: species or system mouse; details: 160 mg/kg tail vein bolus, 5 min
# Description: For tissue analysis, tissues were weighed and extracted in 25 μl/mg extraction buffer containing internal standard and homogenised in a Precellys 24 homogeniser. Homogenates were centrifuged to remove insoluble debris. Extracts were analysed by LC-MS/MS and the levels of malonate assessed by interpolation of a malonate standard curve.
# pKa and ionisation state = format: physicochemical; details: pH 6.4
# From the text: In 3A3OPA, one carboxylic acid has been replaced with a neutral amido group leaving a single carboxylic acid of pKa˜4.75. Thus, at pH 7.4 3A3OPA resembles the monocarboxylate form of malonate.
structure (smiles),measurement,setting,value
"NC(=O)CC(=O)O [3A3OPA, 3-amino-3-oxypropanoic acid]",uptake into cells at pH 7.4 compared with malonate,"C2C12 cells; 5 mM, pH 7.4",more 3A3OPA being taken up into cells at pH 7.4 than malonate
same,"intracellular uptake, effect of lowered pH",C2C12 cells,changed negligibly
same,pKa of single carboxylic acid,[1],~4.75
CC(C)Cn1c(=O)n(C)c(=O)c2c(C(=O)N3CC[C@@H](O)C3)c(Cc3ccnc4ccccc34)sc21 [AR-C141990],effect on malonate uptake into the Langendorff perfused heart,MCT1,blocked
"COC(=O)CC(=O)OC [DMM, dimethyl malonate]",necrotic brain infarct volume,MCAO model,not to be protective; also recorded: no significant difference
same,protection against IR injury,[2]; administered prior to and throughout ischaemia (WO 2016/001686),protective
"O=C([O-])CC(=O)[O-].[Na+].[Na+] [DSM, disodium malonate]","intracellular uptake, effect of lowered pH",C2C12 cells,greatly enhanced
same,malonate uptake in heart after ischaemia,"[3]; 0, 5, 10 or 20 min ischaemia, reperfused with 5 mM DSM pH 7.4",ischemic time-dependent uptake
same,"malonate uptake in heart, infused at low pH vs neutral pH","[3]; 5 mM DSM, pH 6 vs pH 7.4",greatly enhanced
same,lactate levels compared to reperfusion alone,Langendorff heart,decreased
same,infarct size (cardioprotection),murine LAD MI model; 160 mg/kg infusion at reperfusion,cardioprotective
same,"infarct size, cardioprotection in combination with cyclosporin A",murine LAD MI model; DSM 160 mg/kg with cyclosporin A 10 mg/kg at reperfusion,additive to cyclosporin A alone
same,levels of malonate in the cell at pH 6 vs pH 7.4 or 8,H9c2 myoblasts,significantly higher
same,succinate levels (malonate-dependent SDH inhibition) at low pH,H9c2 myoblasts,greater succinate accumulation
same,necrotic brain infarct volume,MCAO model,decreased
same,intracellular malonate levels,"[4]; 5 mM DSM, after 5 min",~2 nmol/mg protein
same,malonate uptake into cells (words),[4]; listed as Malonate,both dose and time-dependent
same,malonate uptake into cells (words),[4]; listed as disodium malonate,rapid malonate uptake
same,intracellular malonate concentration,[4]; 250 μM malonate,about 50 μM
same,intracellular malonate concentration,[4]; 5 mM malonate,~500 µM
same,intracellular malonate levels,[4]; incubated with 250 μM disodium malonate,0.2-0.4 nmol/mg protein
same,"tissue levels of malonate, brain",[5],uptake in the brain
same,"tissue levels of malonate, heart",[5],significant amounts
same,"tissue levels of malonate, kidney",[5],particularly high
same,"tissue levels of malonate, liver",[5],significant amounts
same,fraction in monocarboxylate form,pKa and ionisation state,approximately 16%
same,protection against myocardial IR injury,[2]; small animal ex vivo and large animal models,protective
CC(O)C(=O)O (stereo not shown) [lactate],effect on malonate uptake into the Langendorff perfused heart,MCT1,blocked
